Reference: patent US8609695B2, “Methods of treating and/or suppressing insulin resistance” (Endorecherche, Inc., priority 1999, dated 2013)

Tests used:
Type in all cases: in vivo, Rattus norvegicus
intact female rats = test: 6-month treatment, fat accumulation in intact female rats receiving or not LHRH-A (Example 5); design: FAT (%): dose or concentration left out as unconfirmed; settings: 6 months; for FAT (%): DEXA, once daily; for increment of the percentage of body fat under LHRH-A: concomitant with LHRH-A
Method: The objective of this study is to determine the effect on fat of treatment with EM-652.HCl and dehydroepiandrosterone (DHEA) in intact female rats receiving or not a luteinizing hormone releasing hormone agonist (LHRH-A, LHRH ethylamide diacetate). For this purpose, intact female rats, treated or not with LHRH-A (2 μg/rat), received daily administration of EM-652.HCl (2.5 mg/kg) and DHEA (100 mg/kg), alone or in combination, for 6 months. EM-652.HCl was administered orally, DHEA was applied topically while LHRH-A was injected subcutaneously. All treatments were administered once daily.
One hundred twenty rats were separated into 8 groups of 15 animals for conduct of the study outlined below:
The LHRH-A is available in solution at a concentration of 1.0 mg/ml. We diluted this concentrated solution (in order to obtain a final concentration of 0.004 mg/ml) by using the following vehicle: 0.3% Sodium Chloride and 0.25% Sodium Phosphate monobasic, monohydrate in water. The sodium hydroxide (aqueous) was used to adjust the pH between 5.6-6.2.
Dosing suspensions/solutions were prepared every two weeks according to the most recent body weight (group mean) except for the LHRH-A solution. For EM-652.HCl administered orally, the vehicle (0.4% methylcellulose) was added to the tested compound, previously weighed into a glass bottle, at least 48 hours prior to the first dosing day. To ensure the homogeneity of dosing suspension, it was stirred at least 48 hours at 2 to 8 C. Dosing suspension was kept at 2 to 8 C. For DHEA solution applied topically, the ethanol was added to DHEA and the mix were agitated until dissolution of DHEA. Then, the polypropylene glycol was added and the solution agitated until homogeneity. Dosing solution was kept at 2 to 8 C. For LHRH-A solution injected subcutaneously, a dilution of the concentrated solution using the appropriate vehicle was prepared every month. Dosing solution was kept at 2 to 8 C.
The administration of tested compounds or vehicle was given from on Study Day 1 of the protocol. The tested compounds were given as suspension in 0.4% methylcellulose by oral gavage (0.5 ml/gavage/rat) once daily or were applied topically in 50% ethanol-50% propylene glycol (0.5 ml/application/rat) once daily. Rats from groups 5 to 8 received also the LHRH-A once daily by subcutaneous injection (0.5 ml/injection/rat). Rats not receiving a tested compound orally and/or topically received the appropriate vehicle alone.
Body composition was measured on whole skeleton of animal under Isoflurane-induced anesthesia using dual energy x-ray absorptiometry (DEXA; QDR 4500A, Hologic) during the acclimation period and after 6 months of treatment.

[1] = tested on: ovariectomized female rats; test: 20-day treatment with EM-652.HCl, estradiol and DHEA, body fat (Example 6); settings: OVX rats; for decrease of body fat / decrease of retroperitoneal adipose tissue: 20 days; for Retroperitoneal adipose tissue / Fat %: enriched carbohydrate diet, 20 days oral, EM-652.HCl 0.5, E2 0.5, DHEA 100 mg/rat; for Fat %: DEXA day 21
Excerpt: d) Diet: Certified Rodent feed (Lab Diet #5002, pellets) and tap water were provided ad libitum during the acclimation period. During the study period, the rats received an enriched carbonhydrate diet ad libitum. The enriched diet (diet #3) was composed of (g/100 g): Corn starch, 31.2; Dextrose, 31.2; Casein, 20.0; Corn oil, 6.4; dl-Methionine, 0.3; Vitamin mix, 1.0; AIN-76 mineral mix, 4.9; Fiber, 5.0.
80 rats were assigned to 8 groups of 10 rats for the conduct of the study outlined below:
On day 0 of the study, rats from groups 2 to 8 were ovariectomized, by bilateral flank incision, under Isoflurane-induced anesthesia. Rats from group 1 were sham-operated.
The administration of the test articles or vehicle began on Day 1 (the day following the ovariectomy). The tested compounds were given as suspensions in 0.4% methylcellulose by oral gavage (0.5 ml/gavage) for 20 days.
On day 21 of the study (prior to the necropsy), body composition was determined on whole body skeleton of animals under Isoflurane-induced anesthesia using dual energy x-ray absorptiometry (DEXA; QDR 4500A, Hologic) in order to determine the effect of treatments on fat percentage.
Right and left retroperitoneal adipose tissue were collected and weighed.

[2] = tested on: lean and obese Zucker female rats; test: Energy balance and lipid-lipoprotein metabolism in Zucker female rats (Example 8B); settings: for Lipoprotein lipase activity White retroperitoneal / Lipoprotein lipase activity soleus / Plasma glucose / Plasma insulin / Plasma total cholesterol / Plasma triglycerides / Weight: 2.5 mg/kg orally once daily, 14 days
Method: The objective of this study was to determine the cffect of EM-652.HCl on energy balance and lipid-lipoprotein metabolism in lean and obese Zucker female rats. For this purpose, EM-652.HCl (2.5 mg/kg) was administered orally (gavage) once daily for 14 days to intact lean and obese Zucker female rats.
d) Diet: • During the acclimation period, rats received a commercial rodent diet (Purina, #5075) and tap water ad libitum. During study period, rats received the following diet (diet #3) composed of (g/100 g): Starch, 31.2; Dextrose, 31.2; Casein, 20.0; Corn oil, 6.4; dl-Methionine, 0.3; Vitamin mix, 1.0; AIN-76 mineral mix, 4.9; Fiber, 5.0. Rats were fasted (with access to water only) around 07 h00 the morning of their necropsy day. Randomixation:
Sixteen lean and sixteen obese intact female rats were assigned to 4 groups of 8 rats for conduct of the study outlined below.
Administration of the tested compound or vehicle started on Day 1 of the study. The tested compound EM-652.HCl was given as suspension in 0.4% methylcellulose by oral gavage (0.5 ml/gavage/rat) once daily for 14 days. Rats from control groups received the vehicle alone (0.5 ml/gavage/rat) for the same time period.
During the acclimation period, animals were weighed two days prior to the start of dosing for randomization. Then, rats were weighed on day 1 of the study and every 2 days during the study period as well as on the day of necropsy. Body weights were recorded with a precision of 1 g.
Following an approximative 6-hour fasting period, animals were necropsied (approximately 30 hours after the last dosing). They were anesthesized with ketamine-xylazine and blood drawn by cardiac punction.
Blood lipids (Total cholesterol (CHOL) and Triglycerides (TG)) and glucose were measured on frozen plasma samples using the Boehringer Mannheim Diagnostic Hitachi 911 Analyzer (Boehringer Mannheim Diagnostic Laboratory Systems). Circulating hormones and substrates (Leptin, Insulin, corticosterone) were measured on frozen plasma samples with the following kits: • Leptin: Linco RIA kit • Insulin: Linco RIA kit Organs and Tissues Collected
The retroperitoneal adipose tissue and the soleus (muscle) were collected and frozen in liquid nitrogen for further determination of lipoprotein lipase (LPL) activity.

SMILES: C[C@]12CC[C@H](O)CC1=CC[C@@H]1[C@@H]2CC[C@]2(C)C(=O)CC[C@@H]12 [DHEA, dehydroepiandrosterone]
- FAT (%) (intact female rats): 20.2 ± 2.3%
- increment of the percentage of body fat under LHRH-A (intact female rats): 19%
- decrease of body fat [1]: 59%
- decrease of retroperitoneal adipose tissue [1]: 75%
- Retroperitoneal adipose tissue [1]: 0.92 ± 0.17 g
- Fat % [1]: 7.8 ± 0.8%

SMILES: CC1=C(c2ccc(O)cc2)[C@H](c2ccc(OCCN3CCCCC3)cc2)Oc2cc(O)ccc21.Cl [EM-652.HCl, (S)-(+)-7-hydroxy-3-(4′-hydroxyphenyl)-4-methyl-2-(4″-(2′″-piperidino-ethoxy)phenyl)-2H-1-benxopyran hydrochloride]
- FAT (%) (intact female rats): 19.1 ± 1.4%
- increment of the percentage of body fat under LHRH-A (intact female rats): 35%
- decrease of body fat [1]: 46%
- decrease of retroperitoneal adipose tissue [1]: 59%
- Retroperitoneal adipose tissue [1]: 1.52 ± 0.18 g
- Fat % [1]: 10.2 ± 1.2%
- Lipoprotein lipase activity White retroperitoneal ([2]; lean Zucker female rats): 1349 ± 246 μU/g protein
- Lipoprotein lipase activity soleus ([2]; lean Zucker female rats): 60.8 ± 11.1 μU/g protein
- Plasma glucose ([2]; lean Zucker female rats): 9.60 ± 0.41 mmol/L
- Plasma insulin ([2]; lean Zucker female rats): 0.063 ± 0.012 nmol/L
- Plasma total cholesterol ([2]; lean Zucker female rats): 1.57 ± 0.14 mmol/L
- Plasma triglycerides ([2]; lean Zucker female rats): 0.83 ± 0.07 mmol/L
- Weight ([2]; lean Zucker female rats): 154 ± 5 g
- reduction of plasma insulin ([2]; lean female Zucker rats, 2.5 mg/kg/day): 48%
- Lipoprotein lipase activity White retroperitoneal ([2]; obese Zucker female rats): 3819 ± 485 μU/g protein
- Lipoprotein lipase activity soleus ([2]; obese Zucker female rats): 36.6 ± 7.1 μU/g protein
- Plasma glucose ([2]; obese Zucker female rats): 11.70 ± 0.47 mmol/L
- Plasma insulin ([2]; obese Zucker female rats): 0.515 ± 0.091 nmol/L
- Plasma total cholesterol ([2]; obese Zucker female rats): 3.27 ± 0.97 mmol/L
- Plasma triglycerides ([2]; obese Zucker female rats): 22.20 ± 4.44 mmol/L
- Weight ([2]; obese Zucker female rats): 291 ± 9 g
- effect on plasma insulin ([2]; obese female Zucker rats, 2.5 mg/kg/day): no significant effect
